Reference: the OligoGym collection
Where “and” joins values, the source holds several entries; their conditions need not be identical. Equal entries are not always repeated. HELM strings list units from the 5' end as sugar, base in round brackets, then linkage (d deoxyribose, r ribose, m 2'-O-methyl, p phosphodiester). Methylation of C is not given here. [moe] = 2'-O-(2-methoxyethyl) (MOE); [cEt] = constrained ethyl (cEt); [sp] = phosphorothioate linkage

Target: HBV
Conditions: ASO

Substance | target mRNA inhibition (HepG2, 0.07 µM) | also measured
RNA1{[moe](A)[sp].[moe](G)[sp].[moe](A)[sp].[moe](G)[sp].[moe](G)[sp].d(T)[sp].d(G)[sp].d(A)[sp].d(A)[sp].d(G)[sp].d(C)[sp].d(G)[sp].d(A)[sp].d(A)[sp].[moe](G)[sp].[moe](T)[sp].[moe](G)}$$$$V2.0 | 64% and 55% | 
RNA1{[moe](A)[sp].[moe](G)[sp].[moe](A)[sp].[moe](G)[sp].d(G)[sp].d(T)[sp].d(G)[sp].d(A)[sp].d(A)[sp].d(G)[sp].d(C)[sp].d(G)[sp].d(A)[sp].[moe](A)[sp].[moe](G)[sp].[moe](T)[sp].[moe](G)}$$$$V2.0 | 50% and 47% | 
RNA1{[moe](A)[sp].[moe](G)[sp].[moe](A)[sp].d(G)[sp].d(A)[sp].d(A)[sp].d(G)[sp].d(T)[sp].d(C)[sp].d(C)[sp].d(A)[sp].d(C)[sp].[moe](C)[sp].[moe](A)[sp].[moe](C)[sp].[moe](G)[sp].[moe](A)}$$$$V2.0 | 59% and 56% | 
RNA1{[moe](A)[sp].[moe](G)[sp].[moe](A)[sp].d(T)[sp].d(G)[sp].d(A)[sp].d(G)[sp].d(G)[sp].d(C)[sp].d(A)[sp].d(T)[sp].d(A)[sp].[moe](G)[sp].[moe](C)[sp].[moe](A)[sp].[moe](G)[sp].[moe](C)}$$$$V2.0 | 69% and 63% | 
RNA1{[moe](A)[sp].[moe](G)[sp].[moe](C)[sp].[moe](G)[sp].d(A)[sp].d(A)[sp].d(G)[sp].d(T)[sp].d(G)[sp].d(C)[sp].d(A)[sp].d(C)[sp].d(A)[sp].[moe](C)[sp].[moe](G)[sp].[moe](G)}$$$$V2.0 | 78% and 73% | target mRNA inhibition (HepG2, 0.0092593 µM): 25%; target mRNA inhibition (HepG2, 0.0277778 µM): 37%; target mRNA inhibition (HepG2, 0.0833333 µM): 73%; target mRNA inhibition (HepG2, 0.25 µM): 87%
RNA1{[moe](A)[sp].[moe](G)[sp].[moe](G)[sp].[moe](A)[sp].d(G)[sp].d(T)[sp].d(T)[sp].d(C)[sp].d(C)[sp].d(G)[sp].d(C)[sp].d(A)[sp].d(G)[sp].[moe](T)[sp].[moe](A)[sp].[moe](T)[sp].[moe](G)}$$$$V2.0 | 74% and 50% | 
RNA1{[moe](A)[sp].[moe](G)[sp].[moe](G)[sp].[moe](C)[sp].d(A)[sp].d(T)[sp].d(A)[sp].d(G)[sp].d(C)[sp].d(A)[sp].d(G)[sp].d(C)[sp].d(A)[sp].[moe](G)[sp].[moe](G)[sp].[moe](A)[sp].[moe](T)}$$$$V2.0 | 29% and 31% | 
RNA1{[moe](A)[sp].[moe](G)[sp].[moe](G)[sp].[moe](T)[sp].[moe](G)[sp].d(A)[sp].d(A)[sp].d(G)[sp].d(C)[sp].d(G)[sp].d(A)[sp].d(A)[sp].d(G)[sp].d(T)[sp].[moe](G)[sp].[moe](C)[sp].[moe](A)}$$$$V2.0 | 73% and 56% | 
RNA1{[moe](A)[sp].[moe](G)[sp].[moe](G)[sp].[moe](T)[sp].[moe](G)[sp].d(A)[sp].d(A)[sp].d(G)[sp].d(C)[sp].d(G)[sp].d(A)[sp].d(A)[sp].d(G)[sp].d(T)[sp].[moe](G)[sp].[moe](C)}$$$$V2.0 | 50% and 44% | 
RNA1{[moe](A)[sp].[moe](G)[sp].[moe](G)[sp].d(C)[sp].d(A)[sp].d(T)[sp].d(A)[sp].d(G)[sp].d(C)[sp].d(A)[sp].d(G)[sp].d(C)[sp].[moe](A)[sp].[moe](G)[sp].[moe](G)[sp].[moe](A)}$$$$V2.0 | 54% and 53% | 
RNA1{[moe](A)[sp].[moe](G)[sp].[moe](G)[sp].d(T)[sp].d(G)[sp].d(A)[sp].d(A)[sp].d(G)[sp].d(C)[sp].d(G)[sp].d(A)[sp].d(A)[sp].d(G)[sp].[cEt](T)[sp].[cEt](G)[sp].[cEt](C)}$$$$V2.0 | 73% and 68% | 
RNA1{[moe](A)[sp].[moe](G)[sp].[moe](T)[sp].[moe](T)[sp].d(C)[sp].d(C)[sp].d(G)[sp].d(C)[sp].d(A)[sp].d(G)[sp].d(T)[sp].d(A)[sp].d(T)[sp].[moe](G)[sp].[moe](G)[sp].[moe](A)[sp].[moe](T)}$$$$V2.0 | 43% and 52% | 
RNA1{[moe](A)[sp].[moe](G)[sp].[moe](T)[sp].[moe](T)[sp].d(C)[sp].d(C)[sp].d(G)[sp].d(C)[sp].d(A)[sp].d(G)[sp].d(T)[sp].d(A)[sp].d(T)[sp].[moe](G)[sp].[moe](G)[sp].[moe](A)}$$$$V2.0 | 60% and 39% | 
RNA1{[moe](A)[sp].[moe](G)[sp].[moe](T)[sp].d(T)[sp].d(C)[sp].d(C)[sp].d(G)[sp].d(C)[sp].d(A)[sp].d(G)[sp].d(T)[sp].d(A)[sp].d(T)[sp].[cEt](G)[sp].[cEt](G)[sp].[cEt](A)}$$$$V2.0 | 58% and 69% | 
RNA1{[moe](A)[sp].[moe](G)[sp].d(A)[sp].d(A)[sp].d(G)[sp].d(T)[sp].d(C)[sp].d(C)[sp].d(A)[sp].d(C)[sp].d(C)[sp].[moe](A)[sp].[moe](C)[sp].[moe](G)[sp].[moe](A)[sp].[moe](G)[sp].[moe](T)}$$$$V2.0 | 62% and 49% | 
RNA1{[moe](A)[sp].[moe](T)[sp].[moe](G)[sp].[moe](A)[sp].[moe](G)[sp].[moe](G)[sp].d(C)[sp].d(A)[sp].d(T)[sp].d(A)[sp].d(G)[sp].d(C)[sp].d(A)[sp].d(G)[sp].d(C)[sp].[moe](A)[sp].[moe](G)}$$$$V2.0 | 55% and 51% | 
RNA1{[moe](A)[sp].[moe](T)[sp].[moe](G)[sp].d(A)[sp].d(G)[sp].d(G)[sp].d(C)[sp].d(A)[sp].d(T)[sp].d(A)[sp].d(G)[sp].d(C)[sp].[moe](A)[sp].[moe](G)[sp].[moe](C)[sp].[moe](A)[sp].[moe](G)}$$$$V2.0 | 66% and 51% | 
RNA1{[moe](A)[sp].[moe](T)[sp].[moe](T)[sp].[moe](T)[sp].[moe](A)[sp].d(T)[sp].d(G)[sp].d(C)[sp].d(C)[sp].d(T)[sp].d(A)[sp].d(C)[sp].d(A)[sp].d(G)[sp].[moe](C)[sp].[moe](C)[sp].[moe](T)}$$$$V2.0 | 70% and 48% | 
